Assay results as given in the NIST ThermoML archive (doi:10.1016/j.tca.2015.02.020).

Experiment: molar heat capacity at constant pressure; xn = mol fraction of the nth substance listed
Details: 101 kPa, Liquid, Small sample (50 mg) DSC

NCCCO [3-amino-1-propanol] + O
Details | molar heat capacity at constant pressure [J/K/mol]
207.56 K, x1 = 0.16 | 73.85
207.57 K, x1 = 0.26 | 81.82
208.04 K, x1 = 0.68 | 129.03
209.45 K, x1 = 0.19 | 75.33
209.97 K, x1 = 0.68 | 142.1
210.91 K, x1 = 0.19 | 78.22
211.07 K, x1 = 0.26 | 88.06
212.29 K, x1 = 0.16 | 75.21
212.29 K, x1 = 0.26 | 82.81
212.78 K, x1 = 0.68 | 130.16
213.28 K, x1 = 0.68 | 142.67
214.19 K, x1 = 0.19 | 76.49
214.23 K, x1 = 0.19 | 79.09
214.38 K, x1 = 0.26 | 89.05
217.03 K, x1 = 0.16 | 76.56
217.04 K, x1 = 0.26 | 84.12
217.51 K, x1 = 0.68 | 131.3
218.93 K, x1 = 0.19 | 78.22
220.86 K, x1 = 0.19 | 81.11
221.02 K, x1 = 0.26 | 90.36
221.77 K, x1 = 0.16 | 78.19
221.77 K, x1 = 0.26 | 85.11
222.25 K, x1 = 0.68 | 133
223.67 K, x1 = 0.19 | 79.95
224.18 K, x1 = 0.19 | 83.13
224.35 K, x1 = 0.26 | 91.35
226.51 K, x1 = 0.16 | 79.55
226.51 K, x1 = 0.26 | 86.42
226.99 K, x1 = 0.68 | 133.57
228.4 K, x1 = 0.19 | 81.39
230.81 K, x1 = 0.19 | 87.46
230.97 K, x1 = 0.26 | 93.32
231.25 K, x1 = 0.16 | 81.18
231.25 K, x1 = 0.26 | 88.06
231.73 K, x1 = 0.68 | 134.71
233.15 K, x1 = 0.19 | 82.84
234.29 K, x1 = 0.26 | 94.31
235.99 K, x1 = 0.16 | 82.54
235.99 K, x1 = 0.26 | 89.71
236.47 K, x1 = 0.68 | 135.85
237.88 K, x1 = 0.19 | 84.28
240.73 K, x1 = 0.16 | 83.89
240.73 K, x1 = 0.26 | 91.02
240.77 K, x1 = 0.19 | 89.19
240.93 K, x1 = 0.26 | 96.61
241.21 K, x1 = 0.68 | 137.55
242.63 K, x1 = 0.19 | 85.72
244.1 K, x1 = 0.19 | 90.63
244.25 K, x1 = 0.26 | 97.92
245.48 K, x1 = 0.16 | 85.52
245.48 K, x1 = 0.26 | 92.66
245.96 K, x1 = 0.68 | 138.69
247.38 K, x1 = 0.19 | 87.17
249.79 K, x1 = 0.16 | 90.14
250.23 K, x1 = 0.16 | 86.88
250.23 K, x1 = 0.26 | 94.31
250.71 K, x1 = 0.68 | 140.39
250.75 K, x1 = 0.19 | 93.23
250.9 K, x1 = 0.26 | 100.22
252.13 K, x1 = 0.19 | 88.61
253.11 K, x1 = 0.16 | 91.5
254.07 K, x1 = 0.19 | 94.09
254.23 K, x1 = 0.26 | 101.21
254.97 K, x1 = 0.16 | 88.24
254.98 K, x1 = 0.26 | 95.95
255.46 K, x1 = 0.68 | 142.1
256.88 K, x1 = 0.19 | 90.05
259.73 K, x1 = 0.16 | 89.32
259.73 K, x1 = 0.26 | 97.59
259.77 K, x1 = 0.16 | 93.94
260.2 K, x1 = 0.68 | 143.8
260.72 K, x1 = 0.19 | 96.4
260.88 K, x1 = 0.26 | 103.84
261.62 K, x1 = 0.19 | 91.5
263.1 K, x1 = 0.16 | 95.03
264.05 K, x1 = 0.19 | 97.56
264.21 K, x1 = 0.26 | 104.82
264.47 K, x1 = 0.16 | 90.68
264.48 K, x1 = 0.26 | 99.24
264.96 K, x1 = 0.68 | 146.08
266.1 K, x1 = 0.16 | 96.11
266.1 K, x1 = 0.19 | 98.13
266.1 K, x1 = 0.26 | 105.48
266.38 K, x1 = 0.19 | 92.94
269.23 K, x1 = 0.16 | 91.77
269.23 K, x1 = 0.26 | 100.55
269.72 K, x1 = 0.68 | 147.21
269.76 K, x1 = 0.16 | 97.2
269.76 K, x1 = 0.68 | 158.01
270.7 K, x1 = 0.19 | 99.29
270.87 K, x1 = 0.26 | 106.79
271.14 K, x1 = 0.19 | 94.38
273.09 K, x1 = 0.16 | 98.01
273.1 K, x1 = 0.68 | 156.88
274.02 K, x1 = 0.16 | 92.85
274.02 K, x1 = 0.26 | 102.19
274.07 K, x1 = 0.19 | 100.16
274.24 K, x1 = 0.26 | 107.45
274.52 K, x1 = 0.68 | 149.49
278.94 K, x1 = 0.16 | 94.21
278.94 K, x1 = 0.19 | 96.4
278.94 K, x1 = 0.26 | 103.51
279.44 K, x1 = 0.68 | 151.19
279.97 K, x1 = 0.16 | 99.1
279.98 K, x1 = 0.68 | 157.45
280.95 K, x1 = 0.19 | 101.02
281.12 K, x1 = 0.26 | 108.77
283.41 K, x1 = 0.16 | 98.83
283.42 K, x1 = 0.68 | 156.88
283.84 K, x1 = 0.16 | 94.75
283.85 K, x1 = 0.19 | 97.27
283.85 K, x1 = 0.26 | 104.82
284.35 K, x1 = 0.68 | 151.76
284.4 K, x1 = 0.19 | 101.02
284.56 K, x1 = 0.26 | 108.77
